Source: US6355799B1, “Substituted benzene compounds, process for their preparation, and herbicidal and defoliant compositions containing them” (ISK Americas Incorporated, priority 1997, dated 2002)

Key:
Assay type in all cases: in vivo
[1] = system: field corn (Zea mays L., var. Dekalb 535, CORN); experiment: Pre-emerge test, crop safety; settings: rating scale 0-100, 14 days after application
How it was run: (§1)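 Sandy loam pots; pre-emerge: sown 1 d pre-spray, surface-watered after, then bottom-watered. Post-emerge: sown 8–21 d before, 2–3 leaf stage, + 0.25% v/v NIS, bottom-watered. Acetone, 187 l/ha track spray, 15–1000 g ai/ha. 0–100 injury score, day 14.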

[2] = system: upland rice (Oryza sp., var. Tebonnet, RICE); experiment: Pre-emerge test, crop safety; settings: rating scale 0-100, 14 days after application
How it was run: as §1

[3] = system: redroot pigweed (Amaranthus retroflexus, AMARE); experiment: Pre-emerge test, greenhouse herbicide activity screening; settings: rating scale 0-100, 14 days after application
How it was run: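 Rating: 0–100 visual injury, 14 DAA. Application: acetone, 187 l/ha, 15–1000 g ai/ha, flat-fan track sprayer with nozzle 40–45 cm above soil or canopy. Post-emerge runs used 0.25% v/v surfactant on 2–3 leaf plants.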

[4] = system: lambsquarters (Chenopodium album, CHEAL); experiment: as above; settings: rating scale 0-100, 14 days after application
How it was run: (§2)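 Compounds in acetone were track-sprayed at 15-1000 g ai/ha (187 l/ha) on sandy loam pots: pre-emerge one day after seeding, post-emerge at 2-3 leaf stage with 0.25% v/v non-ionic surfactant. Phytotoxicity was rated 14 days later on a 0 (no damage) to 100 (complete death) scale.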

[5] = system: velvetleaf (Abutilon theophrasti, ABUTH); experiment: as above; settings: rating scale 0-100, 14 days after application
How it was run: as §2

[6] = system: green foxtail (Setaria viridis, SETVI); experiment: as above; settings: rating scale 0-100, 14 days after application
How it was run: as §2

[7] = system: large crabgrass (Digitaria sanguinalis, DIGSA); experiment: as above; settings: rating scale 0-100, 14 days after application
How it was run: as §2

[8] = system: ivyleaf morningglory (Ipomoea hederacea, IPOHE); experiment: as above; settings: rating scale 0-100, 14 days after application
How it was run: as §2

[9] = system: barnyardgrass (Echinochloa crus-galli, ECHCG); experiment: as above; settings: rating scale 0-100, 14 days after application
How it was run: as §2

[10] = system: sicklepod (Cassia obtusifolia, CASOB); experiment: as above; settings: rating scale 0-100, 14 days after application
How it was run: as §2

[11] = system: johnsongrass (Sorghum halepense, SORHA); experiment: as above; settings: rating scale 0-100, 14 days after application
How it was run: as §2

[12] = system: field corn (Zea mays L., var. Dekalb 535, CORN); experiment: Post-emerge test, crop safety; settings: rating scale 0-100 (0 no damage, 100 complete death), 14 days after application
How it was run: as §2

[13] = system: upland rice (Oryza sp., var. Tebonnet, RICE); experiment: Post-emerge test, crop safety; settings: rating scale 0-100 (0 no damage, 100 complete death), 14 days after application
How it was run: as §2

[14] = system: lambsquarters (Chenopodium album, CHEAL); experiment: Post-emerge test, greenhouse herbicide activity screening; settings: rating scale 0-100 (0 no damage, 100 complete death), 14 days after application
How it was run: (§3)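 Fourteen days after spraying, crop and weed injury was graded visually from 0, no effect, to 100, every plant dead. Test substances were dissolved in acetone and applied at 15–1000 g ai/ha with a flat-fan nozzle. Application was either pre-emergence, one day after sowing, or post-emergence at the 2–3 leaf stage.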

[15] = system: velvetleaf (Abutilon theophrasti, ABUTH); experiment: as above; settings: rating scale 0-100 (0 no damage, 100 complete death), 14 days after application
How it was run: as §3

[16] = system: common ragweed (Ambrosia artemisizfolia L., AMBEL); experiment: as above; settings: rating scale 0-100 (0 no damage, 100 complete death), 14 days after application
How it was run: as §3

[17] = system: green foxtail (Setaria viridis, SETVI); experiment: as above; settings: rating scale 0-100 (0 no damage, 100 complete death), 14 days after application
How it was run: as §3

[18] = system: large crabgrass (Digitaria sanguinalis, DIGSA); experiment: as above; settings: rating scale 0-100 (0 no damage, 100 complete death), 14 days after application
How it was run: as §3

[19] = system: ivyleaf morningglory (Ipomoea hederacea, IPOHE); experiment: as above; settings: rating scale 0-100 (0 no damage, 100 complete death), 14 days after application
How it was run: as §3

[20] = system: barnyardgrass (Echinochloa crus-galli, ECHCG); experiment: as above; settings: rating scale 0-100 (0 no damage, 100 complete death), 14 days after application
How it was run: as §3

[21] = system: sicklepod (Cassia obtusifolia, CASOB); experiment: as above; settings: rating scale 0-100 (0 no damage, 100 complete death), 14 days after application
How it was run: as §3

[22] = system: redroot pigweed (Amaranthus retroflexus, AMARE); experiment: as above; settings: rating scale 0-100 (0 no damage, 100 complete death), 14 days after application
How it was run: as §3

[23] = system: johnsongrass (Sorghum halepense, SORHA); experiment: as above; settings: rating scale 0-100 (0 no damage, 100 complete death), 14 days after application
How it was run: as §3

COc1c(Cl)cc(F)c(-n2c(=O)cc(C(F)(F)F)n(C)c2=O)c1CC(Cl)C(=O)OCC(F)(F)C(F)(F)C(F)(F)F (single isomer, unassigned) [14-24]
Pre-emerge phytotoxicity rating, crop damage CORN ([1]; 63 g ai/ha): 0
Pre-emerge phytotoxicity rating, crop damage CORN ([1]; 250 g ai/ha): 0
Pre-emerge phytotoxicity rating, crop damage RICE ([2]; 63 g ai/ha): 0
Pre-emerge phytotoxicity rating, crop damage RICE ([2]; 250 g ai/ha): 20
Pre-emerge herbicidal activity, phytotoxicity rating AMARE ([3]; 63 g ai/ha): 50
Pre-emerge herbicidal activity, phytotoxicity rating AMARE ([3]; 250 g ai/ha): 100
Pre-emerge herbicidal activity, phytotoxicity rating CHEAL ([4]; 63 g ai/ha): 0
Pre-emerge herbicidal activity, phytotoxicity rating CHEAL ([4]; 250 g ai/ha): 50
Pre-emerge herbicidal activity, phytotoxicity rating ABUTH ([5]; 63 g ai/ha): 0
Pre-emerge herbicidal activity, phytotoxicity rating ABUTH ([5]; 250 g ai/ha): 80
Pre-emerge herbicidal activity, phytotoxicity rating SETVI ([6]; 63 g ai/ha): 0
Pre-emerge herbicidal activity, phytotoxicity rating SETVI ([6]; 250 g ai/ha): 0
Pre-emerge herbicidal activity, phytotoxicity rating DIGSA ([7]; 63 g ai/ha): 20
Pre-emerge herbicidal activity, phytotoxicity rating DIGSA ([7]; 250 g ai/ha): 80
Pre-emerge herbicidal activity, phytotoxicity rating IPOHE ([8]; 63 g ai/ha): 0
Pre-emerge herbicidal activity, phytotoxicity rating IPOHE ([8]; 250 g ai/ha): 0
Pre-emerge herbicidal activity, phytotoxicity rating ECHCG ([9]; 63 g ai/ha): 0
Pre-emerge herbicidal activity, phytotoxicity rating ECHCG ([9]; 250 g ai/ha): 0
Pre-emerge herbicidal activity, phytotoxicity rating CASOB ([10]; 63 g ai/ha): 0
Pre-emerge herbicidal activity, phytotoxicity rating CASOB ([10]; 250 g ai/ha): 30
Pre-emerge herbicidal activity, phytotoxicity rating SORHA ([11]; 63 g ai/ha): 0
Pre-emerge herbicidal activity, phytotoxicity rating SORHA ([11]; 250 g ai/ha): 0
Post-emerge phytotoxicity rating CORN (crop damage) ([12]; Rate 63 g ai/ha): 10
Post-emerge phytotoxicity rating CORN (crop damage) ([12]; Rate 250 g ai/ha): 20
Post-emerge phytotoxicity rating RICE (crop damage) ([13]; Rate 63 g ai/ha): 10
Post-emerge phytotoxicity rating RICE (crop damage) ([13]; Rate 250 g ai/ha): 50
Post-emerge Herbicidal Activity, phytotoxicity rating CHEAL ([14]; Rate 63 g ai/ha): 80
Post-emerge Herbicidal Activity, phytotoxicity rating CHEAL ([14]; Rate 250 g ai/ha): 90
Post-emerge Herbicidal Activity, phytotoxicity rating ABUTH ([15]; Rate 63 g ai/ha): 70
Post-emerge Herbicidal Activity, phytotoxicity rating ABUTH ([15]; Rate 250 g ai/ha): 100
Post-emerge Herbicidal Activity, phytotoxicity rating AMBEL ([16]; Rate 63 g ai/ha): 50
Post-emerge Herbicidal Activity, phytotoxicity rating AMBEL ([16]; Rate 250 g ai/ha): 50
Post-emerge Herbicidal Activity, phytotoxicity rating SETVI ([17]; Rate 63 g ai/ha): 0
Post-emerge Herbicidal Activity, phytotoxicity rating SETVI ([17]; Rate 250 g ai/ha): 50
Post-emerge Herbicidal Activity, phytotoxicity rating DIGSA ([18]; Rate 63 g ai/ha): 95
Post-emerge Herbicidal Activity, phytotoxicity rating DIGSA ([18]; Rate 250 g ai/ha): 100
Post-emerge Herbicidal Activity, phytotoxicity rating IPOHE ([19]; Rate 63 g ai/ha): 20
Post-emerge Herbicidal Activity, phytotoxicity rating IPOHE ([19]; Rate 250 g ai/ha): 40
Post-emerge Herbicidal Activity, phytotoxicity rating ECHCG ([20]; Rate 63 g ai/ha): 100
Post-emerge Herbicidal Activity, phytotoxicity rating ECHCG ([20]; Rate 250 g ai/ha): 100
Post-emerge Herbicidal Activity, phytotoxicity rating CASOB ([21]; Rate 63 g ai/ha): 0
Post-emerge Herbicidal Activity, phytotoxicity rating CASOB ([21]; Rate 250 g ai/ha): 0
Post-emerge Herbicidal Activity, phytotoxicity rating AMARE ([22]; Rate 63 g ai/ha): 40
Post-emerge Herbicidal Activity, phytotoxicity rating AMARE ([22]; Rate 250 g ai/ha): 90
Post-emerge Herbicidal Activity, phytotoxicity rating SORHA ([23]; Rate 63 g ai/ha): 0
Post-emerge Herbicidal Activity, phytotoxicity rating SORHA ([23]; Rate 250 g ai/ha): 50
